# Assay results: patent US20230144838A1, “THERANOSTIC SYSTEM FOR DIRECTED DIFFUSION OF THERAPEUTIC AND IMAGING AGENTS TO CANCER CELLS” (UNIVERSITAT POLITÈCNICA DE VALÈNCIA, priority 2019, published 2023)
# System: LNCaP (with membrane receptors FOLH1)
# Assay: In vitro cytotoxic activity by MTT assay, LNCaP cells
# Format: cell-based
# Conditions: LNCaP human prostate adenocarcinoma cells, 72 hours, DTX equivalent concentration, n = 3, read-out: IC50 (mean ± SD)
# Experimental: The in vitro cytotoxic activity of the theranostic system was determined by the 3-[4,5-dimethylthiazol-2-yl]-2,5-diphenyltetrazolium (MTT) bromide test. In these assays, the proliferation of living cells is determined via mitochondrial dehydrogenase activity: viable mitochondria reduce MTT by generating MTT-formazan crystals that are quantifiable by visible spectrophotometry.
# Two types of human prostate adenocarcinoma cell lines were used for these assays: LNCaP (with membrane receptors FOLH1, PROTEIN DATA BANK ID FOLH1: 1Z8L) and PC3 (without FOLH1 receptors).
# The cells are seeded in 96-well plates at a rate of 10,000 cells/well in both cases, 24 h before incorporating the nanoparticles. Aliquots of 3 mg ml-^1 of DTX in DMSO are prepared and kept at −20° C. When required, an aliquot is thawed, and working aliquots (100 μg/ml by dilution in enriched RPMI medium) are prepared. Alternatively, aliquots of 100 μg/mL DTX are prepared in enriched RPMI medium and kept at −20° C. until required. […]
# At the end of the incubation period, 10 μl (5 mg/ml) of the MTT solution are added to each well and 4 hours later the formazan crystals are dissolved with isopropanol, and the absorbance at 570 nm is measured. The percentage of cell survival relative to untreated cells is determined and the values of IC50 from the curve DTX concentration-(%) live cells are calculated.
smiles,measurement,value
"CC(=O)O[C@@]12CO[C@@H]1C[C@H](O)[C@@]1(C)C(=O)[C@H](O)C3=C(C)[C@@H](OC(=O)[C@H](O)[C@@H](NC(=O)OC(C)(C)C)c4ccccc4)C[C@@](O)([C@@H](OC(=O)c4ccccc4)[C@H]21)C3(C)C [DTX, docetaxel]",IC50,0.8 ± 0.2 µg/mL
